The values below come from article PMC5452050 (ACS Omega, 2017).

The subject of one series is MV4-11 cells. The experiment in a line: MV4-11 cell proliferation. Particulars: for EC50: Homo sapiens, MV4-11, 72 h, read-out: MV4-11 EC50. The series is classed as cell-based.
Series [1] concerns the target T1, recombinant human FLT3 (571–993) (Homo sapiens, UniProt P36888).
T1 sequence (P36888 571-993): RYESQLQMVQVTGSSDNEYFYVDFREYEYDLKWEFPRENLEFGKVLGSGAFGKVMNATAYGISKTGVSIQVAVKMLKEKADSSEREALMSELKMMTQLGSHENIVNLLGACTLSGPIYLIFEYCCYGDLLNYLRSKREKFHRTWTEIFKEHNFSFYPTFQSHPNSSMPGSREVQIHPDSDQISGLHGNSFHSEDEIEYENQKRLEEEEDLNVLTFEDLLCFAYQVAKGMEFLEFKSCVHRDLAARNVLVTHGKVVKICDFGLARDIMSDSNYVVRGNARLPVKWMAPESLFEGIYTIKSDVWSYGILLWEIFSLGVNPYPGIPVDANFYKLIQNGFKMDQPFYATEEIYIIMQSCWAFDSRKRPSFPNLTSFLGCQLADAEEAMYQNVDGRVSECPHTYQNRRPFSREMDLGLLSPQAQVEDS
As to the kind of experiment: biochemical. The series is classed as biochemical. The conditions noted are these: for IC50: FLT3 IC50, FLT3^WT enzyme, 500 μM ATP.

A further series deals with BJ cells. As to the kind of experiment: BJ fibroblast proliferation. It counts as cell-based. The conditions noted are these: Homo sapiens, 72 h, read-out: BJ EC50, 72 h.
A short description of series [2]: Plasma stability. The conditions noted are these: rat. It counts as in vitro ADME.
A further series concerns FLT3-ITD phosphorylation. The experiment in a line: Western blot of FLT3 signaling in MOLM13^FLT3-ITD cells. The series is classed as cell-based. The conditions noted are these: 1 h, read-out: FLT3 IC50 estimated from loss of FLT3-ITD phosphorylation.
The nature of series [3]: Liver microsomal stability. The conditions noted are these: female, CD-1, mouse, liver microsomes, pH 7.4.
Series [4] is described as follows: Liver microsomal stability. Particulars: rat, liver microsomes, pH 7.4. In general terms: Liver microsomes are vesicles of endoplasmic reticulum, rich in cytochrome P450 enzymes.
In series [5] the test system is MOLM13^FLT3-ITD/D835Y cells. The experiment in a line: MOLM13 cell viability. It counts as cell-based. The conditions noted are these: Homo sapiens, MOLM-13, 72 h, read-out: MOLM13^FLT3-ITD/D835Y IC50.
For another series, the system named is MOLM13^FLT3-ITD cells. As to the kind of experiment: MOLM13 cell viability. The conditions noted are these: Homo sapiens, MOLM-13, 72 h, read-out: MOLM13^FLT3-ITD IC50. It counts as cell-based.
The nature of series [6]: Liver microsomal stability. The conditions noted are these: both, human, liver microsomes, pH 7.4.
Series [7] can be described thus: Plasma stability. The series is classed as in vitro ADME. The conditions noted are these: human.
A short description of series [8]: Liver microsomal stability. The conditions noted are these: dog, liver microsomes, pH 7.4.
A short description of another series: Solubility. The series is classed as physicochemical. Particulars: buffer, pH 7.4, aqueous buffer, kinetic from dmso stock.
Series [9] can be described thus: Plasma stability. It counts as in vitro ADME. Particulars: mouse.

The structures appear in SMILES notation. Converted amounts (≈) assume the structure as drawn. Where only a bound is given, the exact number is not on record here.

Usually EC50 stands for the concentration that produces a half-maximal response. As for `c1cncc(-c2cccc(Nc3nccc(OC4CCCCC4)n3)c2)c1` [Compound 19, 4-(Cyclohexyloxy)-N-(3-(pyridin-3-yl)phenyl)pyrimidin-2-amine], the EC50 in the series with MV4-11 cells is over 6 µM. For the same molecule, the IC50 in [1] worked out at 187 nM.

As to `c1cncc(-c2cccc(Nc3cccc(NC4CCCCC4)n3)c2)c1` [Compound 9, N^2-Cyclohexyl-N^6-(3-(pyridin-3-yl)phenyl)pyridine-2,6-diamine], the EC50 in the series with MV4-11 cells and in the series with BJ cells was over 10 µM throughout. The IC50 in series [1] was found to be 80 nM.

As to `CC(C)(C)Nc1ccnc(Nc2cccc(-c3cccnc3)c2)n1` [Compound 5f, N^4-(tert-Butyl)-N^2-(3-(pyridin-3-yl)phenyl)pyrimidine-2,4-diamine], the “fold improvement in MV4-11 growth inhibition relative to 1” value with MV4-11 cells is “approximately 10 fold”.

A word on the CLint scaled: it is the capacity of the preparation to metabolise the compound, expressed as a volume cleared per time. Low values mean slow turnover, high ones rapid turnover. Broadly, the half-life is how long it takes for the measured level to halve. One may read the solubility as the concentration that dissolves in the medium under given conditions. Higher therefore signals much dissolved substance. With `CC(C)Nc1ccnc(Nc2cccc(-c3cnccn3)c2)n1` [Compound 6k, N^4-Isopropyl-N^2-(3-(pyrazin-2-yl)phenyl)pyrimidine-2,4-diamine], the plasma stability in “Plasma stability [2]”, in “Plasma stability [7]” and in “Plasma stability [9]” was over 50 h throughout. The IC50 in the series with FLT3-ITD phosphorylation was 50 to 100 nM; in series [5] it was 77 nM; with MOLM13^FLT3-ITD cells, 45 nM. Moreover, the CLint scaled at 4 µM is 485 mL/min/kg in series [3], 122 mL/min/kg in series [4], 14.2 mL/min/kg in series [6] and 37 mL/min/kg in [8]. The half-life at 4 µM in series [3] was 7.08 ± 0.18 min; in [4] it was 22.8 ± 0.6 min; in [6] it was 87.6 ± 6 min; in [8] it was 54 ± 1.2 min. In “Solubility”, the solubility at 18 h is 56.9 ± 1.9 µM (≈ 17.4 µg/mL).

On to `c1cncc(-c2cccc(Oc3nccc(OC4CCCCC4)n3)c2)c1` [Compound 20, 4-(Cyclohexyloxy)-2-(3-(pyridin-3-yl)phenoxy)pyrimidine], for which the concentration giving a half-maximal response (EC50) in the series on MV4-11 cells is over 13 µM. In series [1], the IC50 worked out at 49 nM.

On to `CN(c1cccc(-c2cccnc2)c1)c1nccc(N(C)C2CCCCC2)n1` [Compound 17, N^4-Cyclohexyl-N^2,N^4-dimethyl-N^2-(3-(pyridin-3-yl)phenyl)pyrimidine-2,4-diamine], for which the EC50 in the series on MV4-11 cells worked out at 0.039 µM. In addition, the IC50 in [1] was over 15000 nM.

For the molecule `c1cncc(-c2cccc(Oc3nccc(NC4CCCCC4)n3)c2)c1` [Compound 22, N-Cyclohexyl-2-(3-(pyridin-3-yl)phenoxy)pyrimidin-4-amine], the EC50 in the series with MV4-11 cells was over 14 µM. In series [1], the “fold reduction of FLT3 enzymatic activity compared to 1” value is about 40 fold and the IC50 was found to be 1260 nM.

Turning to `c1cncc(-c2cccc(Nc3nccc(NC4CCNCC4)n3)c2)c1` [Compound 5q, N^4-(Piperidin-4-yl)-N^2-(3-(pyridin-3-yl)phenyl)pyrimidine-2,4-diamine], the “fold more potent than 1 against FLT3” value in [1] is reported as “approximately 4 fold”.

Regarding `c1cncc(-c2cccc(Nc3cc(NC4CCCCC4)ccn3)c2)c1` [Compound 13, N^4-cyclohexyl-N^2-(3-(pyridin-3-yl)phenyl)pyridine-2,4-diamine], the half-maximal effective concentration (EC50) was over 16 µM in the series on MV4-11 cells and 10.6 µM with BJ cells. Also, the IC50 in series [1] was 1500 nM.

Consider `CN(c1ccnc(Nc2cccc(-c3cccnc3)c2)n1)C1CCCCC1` [Compound 16, N^4-Cyclohexyl-N^4-methyl-N^2-(3-(pyridin-3-yl)phenyl)pyrimidine-2,4-diamine], for which the EC50 in the series on MV4-11 cells is over 8 µM. Moreover, the IC50 in series [1] amounted to 82 nM.

In the case of `CC[C@@H](C)Nc1ccnc(Nc2cccc(-c3cccnc3)c2)n1` [Compound 5k, (R)-N^4-(sec-Butyl)-N^2-(3-(pyridin-3-yl)phenyl)pyrimidine-2,4-diamine], the “fold improvement in MV4-11 growth inhibition relative to 1” value in the series on MV4-11 cells is recorded as “approximately 10 fold”.

In the case of `c1cncc(-c2cccc(Nc3ccnc(NC4CCCCC4)c3)c2)c1` [Compound 14, N^2-Cyclohexyl-N^4-(3-(pyridin-3-yl)phenyl)pyridine-2,4-diamine], the EC50 in the series with MV4-11 cells was over 8 µM; with BJ cells, 8.74 µM. In series [1], the IC50 is 141 nM.

Take `CC(C)(C)c1cc(NC(=O)Nc2ccc(-c3cn4c(n3)sc3cc(OCCN5CCOCC5)ccc34)cc2)no1` [quizartinib, reference compound]: the concentration giving a half-maximal response (EC50) is 0.0007 µM with MV4-11 cells and over 22 µM with BJ cells.

On to `CC[C@H](C)Nc1ccnc(Nc2cccc(-c3cccnc3)c2)n1` [Compound 5j, (S)-N^4-(sec-Butyl)-N^2-(3-(pyridin-3-yl)phenyl)pyrimidine-2,4-diamine], for which, in the series on MV4-11 cells, the “fold improvement in MV4-11 growth inhibition relative to 1” value is recorded as “approximately 10 fold”.

Regarding `CN(c1cccc(-c2cccnc2)c1)c1nccc(NC2CCCCC2)n1` [Compound 21, N^4-Cyclohexyl-N^2-methyl-N^2-(3-(pyridin-3-yl)phenyl)pyrimidine-2,4-diamine], in the series on MV4-11 cells, the EC50 was over 4 µM. The IC50 in series [1] is over 11000 nM.
